Source: paper PMC12069442 (Frontiers in Pharmacology, 2025)
Entries after “also recorded” stand apart in the source; their conditions may differ. Where a name gives a salt, the structure may show the parent alone.

Target: CYP3A4.1 (Homo sapiens, UniProt P08684)
Assay: not given
Settings: not given

Chain of CYP3A4.1 (P08684 whole entry): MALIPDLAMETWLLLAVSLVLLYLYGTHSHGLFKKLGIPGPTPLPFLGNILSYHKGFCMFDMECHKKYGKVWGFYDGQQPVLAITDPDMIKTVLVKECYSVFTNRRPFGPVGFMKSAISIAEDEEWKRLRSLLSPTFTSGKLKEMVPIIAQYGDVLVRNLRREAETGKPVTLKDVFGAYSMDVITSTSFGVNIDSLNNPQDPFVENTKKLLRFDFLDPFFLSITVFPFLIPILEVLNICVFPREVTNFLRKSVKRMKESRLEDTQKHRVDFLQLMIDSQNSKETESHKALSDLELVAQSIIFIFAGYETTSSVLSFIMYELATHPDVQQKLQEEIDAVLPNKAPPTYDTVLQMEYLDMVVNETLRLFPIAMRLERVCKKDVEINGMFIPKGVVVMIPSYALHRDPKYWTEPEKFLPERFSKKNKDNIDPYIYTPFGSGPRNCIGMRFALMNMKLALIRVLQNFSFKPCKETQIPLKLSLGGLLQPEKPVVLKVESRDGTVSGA

| Compound | α | αKi [µM] |
| --- | --- | --- |
| O=c1c(O)c(-c2ccc(O)c(O)c2)oc2cc(O)cc(O)c12 [quercetin, Quercetin] | 0.66 | 10.06 |

Test system: human liver microsomes (HLM) (Homo sapiens)
Assay: Kinetics inhibitory assay of quercetin on ziprasidone metabolism in HLM
Type: in vitro ADME
Settings: ziprasidone 2.5–20 μM, quercetin 0, 6.25, 12.5, 25 μM

Chain of human liver microsomes (HLM) (Homo sapiens) (P08684 2-503): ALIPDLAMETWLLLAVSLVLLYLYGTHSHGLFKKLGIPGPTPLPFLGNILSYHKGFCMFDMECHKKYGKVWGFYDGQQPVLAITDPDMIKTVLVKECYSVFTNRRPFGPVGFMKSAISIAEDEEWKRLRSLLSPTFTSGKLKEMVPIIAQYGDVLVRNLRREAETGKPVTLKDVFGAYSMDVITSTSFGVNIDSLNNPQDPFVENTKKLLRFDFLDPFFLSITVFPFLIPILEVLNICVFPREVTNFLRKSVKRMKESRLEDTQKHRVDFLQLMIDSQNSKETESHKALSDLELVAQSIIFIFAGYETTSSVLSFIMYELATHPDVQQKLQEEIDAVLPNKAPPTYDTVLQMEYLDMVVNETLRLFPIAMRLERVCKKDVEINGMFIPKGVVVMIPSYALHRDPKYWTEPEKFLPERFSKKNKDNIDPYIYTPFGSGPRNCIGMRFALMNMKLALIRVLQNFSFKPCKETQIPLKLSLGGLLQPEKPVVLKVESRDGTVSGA

| Compound | Inhibition type |
| --- | --- |
| O=c1c(O)c(-c2ccc(O)c(O)c2)oc2cc(O)cc(O)c12 [quercetin, Quercetin] | mixed inhibitory mechanism; also recorded: mixed inhibition |

Target: human liver microsomes (HLM) (Homo sapiens, UniProt P08684)
Assay: as above
Type: in vitro ADME
Settings: not given

Chain of human liver microsomes (HLM) (P08684 2-503): as above

| Compound | α |
| --- | --- |
| O=c1c(O)c(-c2ccc(O)c(O)c2)oc2cc(O)cc(O)c12 [quercetin, Quercetin] | 0.21 |

Same assay, conditions: Lineweaver-Burk secondary plot

| Compound | αKi [µM] |
| --- | --- |
| O=c1c(O)c(-c2ccc(O)c(O)c2)oc2cc(O)cc(O)c12 [quercetin, Quercetin] | 4.66 |

Test system: not given
Assay: not given
Parameters: method as in Ye et al., 2024
Settings: nimodipine coadministration; ref Ye et al., 2024; cited from earlier work

| Compound | elevation of AUC | elevation of Cmax |
| --- | --- | --- |
| CCN1CCN(c2cc(-c3ccc(F)cc3)c3c(n2)CCCCCC3)CC1 [blonanserin] | more than 2 fold | more than 2 fold |

Test system: rat liver microsomes (RLM)
Assay: Kinetics inhibitory assay of quercetin on ziprasidone metabolism in RLM
Type: in vitro ADME
Settings: RLM

| Compound | α |
| --- | --- |
| O=c1c(O)c(-c2ccc(O)c(O)c2)oc2cc(O)cc(O)c12 [quercetin, Quercetin] | 0.96 |

Same assay, conditions: RLM 0.3 mg/mL, ziprasidone 10 μM, quercetin 0–100 μM, n=3

| Compound | IC50 [µM] |
| --- | --- |
| O=c1c(O)c(-c2ccc(O)c(O)c2)oc2cc(O)cc(O)c12 [quercetin, Quercetin] | 13.8 ± 0.3 |

Same assay, conditions: RLM, Lineweaver-Burk secondary plot

| Compound | Ki [µM] | αKi [µM] |
| --- | --- | --- |
| O=c1c(O)c(-c2ccc(O)c(O)c2)oc2cc(O)cc(O)c12 [quercetin, Quercetin] | 30.7 | 29.4 |

Same assay, conditions: RLM, ziprasidone 2.5–20 μM, quercetin 0, 6.5, 13, 26 μM

| Compound | Inhibition type |
| --- | --- |
| O=c1c(O)c(-c2ccc(O)c(O)c2)oc2cc(O)cc(O)c12 [quercetin, Quercetin] | mixed inhibitory mechanism; also recorded: mixed inhibition |

Test system: rat liver microsomes (RLM)
Assay: Inhibitor screening on ziprasidone metabolism in RLM
Type: in vitro ADME
Settings: 100 μM inhibitor, 0.3 mg/mL RLM, ziprasidone 10 μM, 20 min

| Compound | Relative activity (%) |
| --- | --- |
| COc1cc2c(c(OC)c1OC)-c1c(cc(OC)c(OC)c1OC)C[C@H](C)[C@H](C)C2 [Schisandrin A] | 69.51 ± 11.79 |
| Cc1cc(O)c2c(c1)C(=O)c1cc(O)cc(O)c1C2=O [Emodin] | 25.64 ± 3.15 |
| COc1ccc(C(C)=O)c(O)c1 [Paeonol] | 108.77 ± 3.51 |
| O=C1CCc2cc(OCCCCc3nnnn3C3CCCCC3)ccc2N1 [Cilostazol] | 55.05 ± 0.99 |
| COc1c(O[C@@H]2O[C@H](C(=O)O)[C@@H](O)[C@H](O)[C@H]2O)cc(O)c2c(=O)cc(-c3ccccc3)oc12 [Wogonoside] | 92.55 ± 1.09 |
| O=C(O)[C@H]1O[C@@H](Oc2cc3oc(-c4ccccc4)cc(=O)c3c(O)c2O)[C@H](O)[C@@H](O)[C@@H]1O [Baicalin] | 87.83 ± 13.63 |
| CC(C)[C@]12O[C@H]1[C@@H]1O[C@]13[C@]1(O[C@H]1C[C@H]1C4=C(CC[C@@]13C)C(=O)OC4)[C@@H]2O [Triptolide] | 87.47 ± 5.70 |
| COCCOC(=O)C1=C(C)NC(C)=C(C(=O)OC(C)C)C1c1cccc([N+](=O)[O-])c1 (stereo not drawn) [Nimodipine] | 49.68 ± 0.53 |
| CCCSc1nc(N[C@@H]2C[C@H]2c2ccc(F)c(F)c2)c2nnn([C@@H]3C[C@H](OCCO)[C@@H](O)[C@H]3O)c2n1 [Ticagrelor] | 36.84 ± 20.49 |
| O=C(/C=C/c1ccc(O)c(O)c1)O[C@@H]1C[C@](O)(C(=O)O)C[C@@H](O)[C@H]1O [Chlorogenic acid] | 91.52 ± 17.97 |
| CCOC(=O)C1=C(C)NC(C)=C(C(=O)OC)C1c1cccc(Cl)c1Cl (stereo not drawn) [Felodipine] | 28.36 ± 1.67 |
| O=c1c(O)c(-c2cc(O)c(O)c(O)c2)oc2cc(O)cc(O)c12 [Myricetin] | 2.64 ± 1.71 |
| COc1cc2ncnc(Nc3ccc(F)c(Cl)c3)c2cc1OCCCN1CCOCC1 [Gefitinib] | 36.20 ± 0.61 |
| CCCCc1nc(Cl)c(CO)n1Cc1ccc(-c2ccccc2-c2nn[nH]n2)cc1 [Losartan] | 74.09 ± 5.29 |
| O=c1cc(-c2ccccc2)oc2cc(O)cc(O)c12 [Chrysin] | 36.09 ± 19.09 |
| CCOc1nc2cccc(C(=O)O)c2n1Cc1ccc(-c2ccccc2-c2nc(=O)o[nH]2)cc1 [Azilsartan] | 92.59 ± 5.86 |
| COc1ccc(-c2coc3cc(O)ccc3c2=O)cc1O [Calycosin] | 104.22 ± 12.51 |
| COc1cc(C2Oc3cc([C@H]4Oc5cc(O)cc(O)c5C(=O)[C@@H]4O)ccc3OC2CO)ccc1O (stereo partly drawn) [Silibinin] | 45.13 ± 1.52 |
| C=C[C@H]1C[N@@]2CC[C@H]1C[C@@H]2[C@@H](O)c1ccnc2ccc(OC)cc12 [Quinidine] | 83.40 ± 4.78 |
| COC(=O)[C@H](c1ccccc1Cl)N1CCc2sccc2C1 [Clopidogrel hydrogen sulfate] | 179.48 ± 15.80 |
| C=C1C[C@@]23CC[C@H]4[C@@](C)(CCC[C@@]4(C)C(=O)O[C@@H]4O[C@H](CO)[C@@H](O)[C@H](O)[C@H]4O)[C@@H]2CC[C@]1(O[C@@H]1O[C@H](CO)[C@@H](O)[C@H](O)[C@H]1O)C3 [Rubusoside] | 103.75 ± 2.05 |
| O=c1cc(-c2ccccc2)oc2cc(O)c(O)c(O)c12 [Baicalein] | 97.20 ± 18.86 |
| CCCCC(=O)N(Cc1ccc(-c2ccccc2-c2nnn[nH]2)cc1)[C@H](C(=O)O)C(C)C [Valsartan] | 44.50 ± 62.94 |

| Compound | Relative activity (%) |
| --- | --- |
| O=c1c(-c2ccc(O)cc2)coc2cc(O)ccc12 [Daidzein] | 121.70 ± 5.16 |
| CC(C)(O)[C@H]1CC[C@@](C)([C@H]2[C@@H](O)C[C@@]3(C)[C@@H]4C[C@H](O[C@@H]5O[C@H](CO)[C@@H](O)[C@H](O)[C@H]5O)[C@H]5C(C)(C)[C@@H](O[C@@H]6OC[C@@H](O)[C@H](O)[C@H]6O)CC[C@@]56C[C@@]46CC[C@]23C)O1 [Astragaloside A] | 107.37 ± 18.93 |
| C[C@@H]1C(=O)O[C@H](C)[C@H]1C[C@@H](O)[C@](C)(O)[C@H]1CC[C@@]2(O)C3=CC(=O)[C@@H]4C[C@@H](O)[C@@H](O)C[C@]4(C)[C@H]3CC[C@]12C [Cyasterone] | 83.75 ± 6.16 |
| CCCN1CCCC[C@H]1C(=O)Nc1c(C)cccc1C [Ropivacaine hydrochloride] | 102.42 ± 0.84 |
| Cucurbitacin B | 117.16 ± 18.74 |
| OC(CNCC(O)C1CCc2cc(F)ccc2O1)C1CCc2cc(F)ccc2O1 (stereo not drawn) [Nebivolol Hydrochloride] | 63.48 ± 3.34 |
| COc1cc(CCC(C)=O)ccc1O [Vanillylacetone] | 93.56 ± 3.00 |
| CCOC(=O)C1=C(COCCN)NC(C)=C(C(=O)OC)C1c1ccccc1Cl (stereo not drawn) [Amlodipine] | 24.44 ± 2.51 |
| CCCCc1oc2ccc(NS(C)(=O)=O)cc2c1C(=O)c1ccc(OCCCN(CCCC)CCCC)cc1 [Dronedarone Hydrochloride] | 23.67 ± 11.05 |
| CCN(CC)CCNC(=O)c1ccc(N)cc1 [Procainamide hydrochloride] | 113.37 ± 13.44 |
| CCCCN1CCCCC1C(=O)Nc1c(C)cccc1C (stereo not drawn) [Bupivacaine hydrochloride] | 104.14 ± 92.28 |
| CC(C)(O)CNc1nc(Nc2ccnc(C(F)(F)F)c2)nc(-c2cccc(C(F)(F)F)n2)n1 [Enasidenib] | 40.44 ± 1.29 |
| CCN(CC)CC(=O)Nc1c(C)cccc1C [Lidocaine] | 93.56 ± 10.94 |
| CCOc1nc2cccc(C(=O)O)c2n1Cc1ccc(-c2ccccc2-c2nnn[nH]2)cc1 [Candesartan] | 54.29 ± 3.95 |
| O=c1cc(-c2ccc(O)cc2)oc2cc(O)cc(O)c12 [Apigenin] | 31.41 ± 2.56 |
| O=C(NC[C@H]1CN(c2ccc(N3CCOCC3=O)cc2)C(=O)O1)c1ccc(Cl)s1 [Rivaroxaban] | 102.37 ± 4.89 |
| CCCc1nc2c(C)cc(-c3nc4ccccc4n3C)cc2n1Cc1ccc(-c2ccccc2C(=O)O)cc1 [Telmisartan] | 64.19 ± 12.39 |
| Clc1cccc(Cl)c1N=C1NCCN1 [Clonidine hydrochloride] | 74.70 ± 0.47 |
| COc1c(O)cc(O)c2c(=O)cc(-c3ccccc3)oc12 [Wogonin] | 80.85 ± 12.40 |
| CCCCc1nc(Cl)c(CO)n1Cc1ccc(-c2ccccc2-c2nn[nH]n2)cc1 [Losartan potassium] | 35.58 ± 50.31 |
| CCCCC1=NC2(CCCC2)C(=O)N1Cc1ccc(-c2ccccc2-c2nnn[nH]2)cc1 [Irbesartan] | 72.41 ± 4.72 |
| O=C1CCC[C@@H]2[C@H]3CCCN4CCC[C@@H](CN12)[C@@H]34 [Matrine] | 98.65 ± 1.77 |
| COc1ccccc1OCCNCC(O)COc1cccc2[nH]c3ccccc3c12 (stereo not drawn) [Carvedilol] | 29.89 ± 3.28 |

Same assay, conditions: 100 μM inhibitor, RLM

| Compound | suppression of the metabolism of ziprasidone |
| --- | --- |
| O=c1c(O)c(-c2ccc(O)c(O)c2)oc2cc(O)cc(O)c12 [quercetin, Quercetin] | over 80% |
| Oc1ccc(/C=C/c2cc(O)cc(O)c2)cc1 [resveratrol, Resveratrol] | over 80% |
